Calls of active or inactive are those of the source. How the calls were made is not given here.
Test system: rodent carcinogenicity bioassays, tumor incidence
Experiment: CCRIS carcinogenicity studies
How it was run: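 NCI-built, expert-reviewed records of carcinogenicity and related test outcomes (mutagenicity, tumor promotion/inhibition) compiled from published and report sources, historical span 1985-2011, not updated.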

With `N#[N+]c1ccc(CO)cc1` the carcinogen call (Species: MOUSE, Strain/Sex: SWISS/FEMALE, Route: SUBCUTANEOUS, Dose: 0, 50 UG/G BW IN 0.01 ML 0.9% SALINE 1/WK FOR 26 WK (STUDY DURATION: 140 WK), Tumor Site: Type of Lesion: SUBCUTIS: TUMOR, SKIN: TUMOR) was “active; positive” and the carcinogen call (Species: MOUSE, Strain/Sex: SWISS/MALE, Route: SUBCUTANEOUS, Dose: 0, 50 UG/G BW IN 0.01 ML 0.9% SALINE 1/WK FOR 26 WK (STUDY DURATION: 140 WK), Tumor Site: Type of Lesion: SUBCUTIS: TUMOR, SKIN: TUMOR) was “active; positive”.
`CC1CN(N=O)CC(C)N1` (stereo not drawn) was tested, and the carcinogen call (Species: RAT, Strain/Sex: F344/FEMALE, Route: ORAL, Dose: 0, 100 MG/L IN DRINKING WATER 5 D/WK FOR 29 WK, STUDY DURATION: 40-50 WK, Dose: 0, 100 MG/L IN DRINKING WATER 5 D/WK FOR 29 WK, STUDY DURATION: 40-50 WK, Tumor Site: Type of Lesion: THYMUS GLAND: LYMPHOMA OR LEUKEMIA, MULTIPLE SITES: LYMPHOMA OR LEUKEMIA) was “active; positive”.
With `CNC(=O)ON=CC(C)(C)SC` the carcinogen call (Species: MOUSE, Strain/Sex: B6C3F1/FEMALE, Route: ORAL, Dose: 0, 2, 6 PPM IN DIET, Dose: 0, 2, 6 PPM IN DIET) was “inactive; negative”, the carcinogen call (Species: MOUSE, Strain/Sex: B6C3F1/MALE, Route: ORAL, Dose: 0, 2, 6 PPM IN DIET, Dose: 0, 2, 6 PPM IN DIET) was “inactive; negative” and the carcinogen call (Species: RAT, Strain/Sex: F344/FEMALE, Route: ORAL, Dose: 0, 2, 6 PPM IN DIET, Dose: 0, 2, 6 PPM IN DIET) was “inactive; negative”. For the same compound, the carcinogen call (Species: RAT, Strain/Sex: F344/MALE, Route: ORAL, Dose: 0, 2, 6 PPM IN DIET, Dose: 0, 2, 6 PPM IN DIET) was “inactive; negative”.
For `OC1c2cccc3c2[C@]2(O[C@H]2C1O)c1ccccc1-3` (stereo partly drawn), the carcinogen call (Species: MOUSE, Strain/Sex: ICR/FEMALE, Route: INTRAPERITONEAL, Dose: 0, 500 NMOL (TOTAL DOSE) ADMINISTERED IN DOSES OF 1/7, 2/7, AND 4/7 ON DAYS 1, 7, AND 15 OF LIFE, RESPECTIVELY (STUDY DU, Tumor Site: Type of Lesion: LUNG: TUMOR) was “active; positive”, the carcinogen call (Species: MOUSE, Strain/Sex: ICR/MALE, Route: INTRAPERITONEAL, Dose: 0, 500 NMOL (TOTAL DOSE) ADMINISTERED IN DOSES OF 1/7, 2/7, AND 4/7 ON DAYS 1, 7 AND 15 OF LIFE , RESPECTIVELY (STUDY DU, Tumor Site: Type of Lesion: LUNG: TUMOR, LIVER: TUMOR) was “active; positive” and the carcinogen call (Species: RAT, Strain/Sex: STRAIN-CD/FEMALE, Route: INJECTION, Dose: 0, 2, 10 UMOL IN 0.1 ML DMSO INJECTED INTO MAMMARY TISSUE UNDER EACH OF THE 3 LEFT THORACIC NIPPLES FOLLOWED BY SIMILAR, Dose: 0, 2, 10 UMOL IN 0.1 ML DMSO INJECTED INTO MAMMARY TISSUE UNDER EACH OF THE 3 LEFT THORACIC NIPPLES FOLLOWED BY SIMILAR, Tumor Site: Type of Lesion: MAMMARY GLAND: TUMOR) was “active; positive”.
For `C`, the carcinogen call (Species: MOUSE, Strain/Sex: NMRI/FEMALE, Route: INHALATION, Dose: 0, 7.4 MG/M3 18 HR/D 5 D/WK FOR 4 MO INCREASED TO 12.2 MG/M3 FOR 9.5 MO FOLLOWED BY CLEAN AIR FOR 9.5 MO (STUDY DURATION) was “inactive; negative”, the carcinogen call (Species: RAT, Strain/Sex: F344/FEMALE, Route: INHALATION, Dose: 0, 2.5, 6.5 MG/M3 IN AIR 16 HR/D 5 D/WK FOR 24 MO (STUDY DURATION: 25.5 MO), Dose: 0, 2.5, 6.5 MG/M3 IN AIR 16 HR/D 5 D/WK FOR 24 MO (STUDY DURATION: 25.5 MO), Tumor Site: Type of Lesion: LUNG: BENIGN OR MALIGNANT NEOPLASM) was “active; positive” and the carcinogen call (Species: RAT, Strain/Sex: F344/FEMALE, Route: INHALATION, Dose: 0, 2.5, 6.5 MG/M3 OF AIR 16 HR/D 5 D/WK FOR UP TO 24 MO (STUDY DURATION: LIFE SPAN), Dose: 0, 2.5, 6.5 MG/M3 OF AIR 16 HR/D 5 D/WK FOR UP TO 24 MO (STUDY DURATION: LIFE SPAN), Tumor Site: Type of Lesion: LUNG: MALIGNANT TUMOR) was “active; positive”. The carcinogen call (Species: RAT, Strain/Sex: F344/MALE, Route: INHALATION, Dose: 0, 2.5, 6.5 MG/M3 IN AIR 16 HR/D 5 D/WK FOR 24 MO (STUDY DURATION: 25.5 MO), Dose: 0, 2.5, 6.5 MG/M3 IN AIR 16 HR/D 5 D/WK FOR 24 MO (STUDY DURATION: 25.5 MO)) was “inactive; negative”, the carcinogen call (Species: RAT, Strain/Sex: F344/MALE, Route: INHALATION, Dose: 0, 2.5, 6.5 MG/M3 OF AIR 16 HR/D 5 D/WK FOR UP TO 24 MO (STUDY DURATION: LIFE SPAN), Dose: 0, 2.5, 6.5 MG/M3 OF AIR 16 HR/D 5 D/WK FOR UP TO 24 MO (STUDY DURATION: LIFE SPAN), Tumor Site: Type of Lesion: LUNG: MALIGNANT TUMOR) was “active; positive” and the carcinogen call (Species: RAT, Strain/Sex: WISTAR/FEMALE, Route: INHALATION, Dose: 0, 7.4 MG/M3 18 HR/D 5 D/WK FOR 4 MO INCREASED TO 12.2 MG/M3 FOR 20 MO FOLLOWED BY CLEAN AIR FOR 6 MO (STUDY DURATION: 3, Tumor Site: Type of Lesion: LUNG: TUMOR) was “active; positive”.
For `CCN(COC(C)=O)N=O`, the carcinogen call (Species: RAT, Strain/Sex: F344/FEMALE, Route: SUBCUTANEOUS, Dose: 5.5 MG/KG 1/WK FOR 10 WK, Tumor Site: Type of Lesion: INJECTION SITE: MALIGNANT FIBROUS HISTIOCYTOMA, LUNG: ADENOMA, ADENOCARCINOMA, SQUAMOUS CELL CARCINOMA) was “active; positive” and the carcinogen call (Species: RAT, Strain/Sex: F344/MALE, Route: SUBCUTANEOUS, Dose: 5.5 MG/KG 1/WK FOR 10 WK, Tumor Site: Type of Lesion: INJECTION SITE: MALIGNANT FIBROUS HISTIOCYTOMA, LUNG: ADENOMA, ADENOCARCINOMA, SQUAMOUS CELL CARCINOMA, THYROID GLAND: C, Tumor Site: Type of Lesion: INJECTION SITE: MALIGNANT FIBROUS HISTIOCYTOMA, LUNG: ADENOMA, ADENOCARCINOMA, SQUAMOUS CELL CARCINOMA, THYROID GLAND: C) was “active; positive”.
`CN(N=O)c1ccccc1` was tested, and the carcinogen call (Species: HAMSTER, Strain/Sex: SYRIAN/FEMALE, Route: GAVAGE, Dose: 0, 5 MG/KG 1/WK FOR 50 WK (TOTAL DOSE: 0; 1.8 MMOL) (STUDY DURATION: LIFETIME), Dose: 0, 5 MG/KG 1/WK FOR 50 WK (TOTAL DOSE: 0; 1.8 MMOL) (STUDY DURATION: LIFETIME), Tumor Site: Type of Lesion: LIVER: CHOLANGIOMA) was “active; positive”, the carcinogen call (Species: MOUSE, Strain/Sex: SWISS/MALE,FEMALE, Route: ORAL, Dose: 0.070 G/L IN DRINKING WATER FOR 28 WK, Tumor Site: Type of Lesion: LUNG: ADENOMA) was “active; positive” and the carcinogen call (Species: RAT, Strain/Sex: ALBINO/MALE,FEMALE, Route: ORAL, Dose: 2.0 MG IN 10 ML DRINKING WATER (AVE) 5/WK FOR 52 WK, Tumor Site: Type of Lesion: ESOPHAGUS: PAPILLOMA, SQUAMOUS CELL CARCINOMA, FORESTOMACH: PAPILLOMA, SQUAMOUS CELL CARCINOMA, MOUTH: PAPILLOMA, SQUAMO, Tumor Site: Type of Lesion: ESOPHAGUS: PAPILLOMA, SQUAMOUS CELL CARCINOMA, FORESTOMACH: PAPILLOMA, SQUAMOUS CELL CARCINOMA, MOUTH: PAPILLOMA, SQUAMO) was “active; positive”. For the same compound, the carcinogen call (Species: RAT, Strain/Sex: STRAIN-BD, Route: ORAL, Dose: 14 MG/KG/D IN DIET FOR 250 D (AVE TOTAL DOSE: 3.4 G/KG), Tumor Site: Type of Lesion: ESOPHAGUS: SQUAMOUS CELL CARCINOMA) was “active; positive” and the carcinogen call (Species: RAT, Strain/Sex: STRAIN-CB/MALE,FEMALE, Route: ORAL, Dose: 5 MG AS 0.2% FOR 7 MO THEN 2.5 MG AS 0.1% IN DRINKING WATER 1/D, 6/WK, Tumor Site: Type of Lesion: ESOPHAGUS: BENIGN TUMOR OR MALIGNANT TUMOR) was “active; positive”.

From PubChem BioAssay AID1259411 (Chemical Carcinogenesis Research Information System (CCRIS), 2018)
